Values joined by “and” are separate entries in the source; they are usually repeats but may differ in a detail not shown here. Equal entries are not always repeated. Where two headings read alike, the source gives them in different places.
How the values were obtained:
Format in all cases: cell-based
[1] = tested on: BxPC-3 human pancreatic adenocarcinoma cells; assay: Comparative study of the activity of camptothecins (CCK-8 cell killing)
Protocol: (§1) KB oral epithelial cancer cells (purchased from: ATCC) were cultured in DMEM medium supplemented with 10% FBS; NCI-N87 human gastric cancer cells (purchased from: ATCC) were cultured in RPMI1640 medium supplemented with 10% FBS; HT29 human colon cancer cells (purchased from: ATCC) were cultured in RPMI1640 medium supplemented with 10% FBS; and BxPC-3 human pancreatic adenocarcinoma cells (purchased from: ATCC) were cultured in RPMI1640 medium supplemented with 10% FBS.
(§2) Using corresponding media described above and in cell plates, the density of KB cells was adjusted to 2×10^4/mL; the density of NCI-N87 cells was adjusted to 5×10^4/mL; the density of HT29 cells was adjusted to 5×10^4/mL, and the cells were plated onto 96-well transparent flat bottom plates, at 100 µL/well, and cultured overnight; and the density of BxPC-3 cells was adjusted to 5×10^4/mL.
(§3) Samples to be detected were diluted to 20 μM with corresponding media, then 5-fold gradient dilution was performed, and 9 concentrations were obtained. A well having cells but with no any sample added was set as the well showing maximum cell growth; and a well having no cells was set as the well of medium background. The diluted samples were added into the cell plates, at 100 μL/well, which were then incubated in a C02 incubator for 96 hours. After the incubation, CCK-8 (purchased from: DOJINDO LABORATORIES) prepared beforehand was added into the plates, at 20 μL/well, and after further 3 hours incubation in the C02 incubator, […] were read on a microplate reader.
(§4) Data obtained was fitted to a four-parameter curve using software Prism7, and equation for calculating maximum killing is: maximum killing (%)=1−(OD450 value of the well showing maximum killing—OD450 value of the well of medium background)/(OD450 value of the well showing maximum cell growth—OD450 value of the cell of medium background)[…].

[2] = tested on: NCI-N87 human gastric cancer cells; assay: as above; conditions: Homo sapiens, NCI-N87, 96 h, read-out: Maximum Killing (%), NCI-N87, killing days 4 days
Protocol: as §1, §2, §3, §4

BT-20 = assay: Proliferation-inhibiting effect on tumor cells (SRB or MTT assay); conditions: Homo sapiens, BT-20, 144 h
Protocol: (§5) For cells growing by adherence, SRB assay was used to detect effect of antibody-drug conjugates or camptothecins on the proliferation of tumor cells in vitro cultured. A certain number of cells in exponential growth phase were inoculated in 96-well cell culture plates, and when the cells grew by adherence overnight, antibody drug conjugates or camptothecins of different concentrations were added into the cells. 144 hours later, the cells were fixed with trichloroacetic acid, and then stained with SRB (prepared in 1% glacial acetic acid at a concentration of 4 mg/mL). 10 mM Tris solution was added into each well to solubilize the bound SRB. OD values at 510 nm were read on a microplate reader.
(§6) Inhibition (%)=([…] of control well−OD value of dosed well)/OD value of control well×100%
(§7) For cells growing in suspension, MTT assay was used to detect effect of antibody-drug conjugates or camptothecins on the proliferation of tumor cells in vitro cultured. A certain number of cells in exponential growth phase were inoculated in 96-well cell culture plates, and when the cells grew in suspension overnight, antibody-drug conjugates or camptothecins of different concentrations were added into the cells. 144 hours later, MTT was added to each well of the plates, and the incubation was continued for 4 hours at 37° C. in a 5% CO2 saturated humidity incubator. Next, 100 μL of SDS-isobutanol-HCl solution was added into each well of the plates, and OD values at 570 nm and 690 nm were read on a microplate reader.
(§8) Half maximal inhibitory concentration (IC50) was calculated from the inhibition (%) at those different concentrations using the software Graphpad Prism 8.0. The experiment was repeated once and the data was expressed as mean±SD.

BT-474 = assay: as above; conditions: Homo sapiens, BT-474, 144 h
Protocol: as §5, §6, §7, §8

BxPC-3 = assay: as above; conditions: Homo sapiens, BXPC-3, 144 h
Protocol: as §5, §6, §7, §8

Calu-3 = assay: as above; conditions: Homo sapiens, Calu-3, 144 h
Protocol: as §5, §6, §7, §8

Colo 205 = assay: as above; conditions: Homo sapiens, COLO 205, 144 h
Protocol: as §5, §6, §7, §8

HT-29 = assay: as above; conditions: Homo sapiens, HT-29, 144 h
Protocol: as §5, §6, §7, §8

HT1376 = assay: as above; conditions: Homo sapiens, HT-1376, 144 h
Protocol: as §5, §6, §7, §8

MCF-7 = assay: as above; conditions: Homo sapiens, MCF7, 144 h
Protocol: as §5, §6, §7, §8

MDA-MB-231/TROP2 = assay: as above; conditions: Homo sapiens, MDA-MB-231, 144 h
Protocol: as §5, §6, §7, §8

MDA-MB-231 = assay: as above; conditions: Homo sapiens, MDA-MB-231, 144 h
Protocol: as §5, §6, §7, §8

MDA-MB-468 = assay: as above; conditions: Homo sapiens, MDA-MB-468, 144 h, read-out: IC50 (nM) Mean ± SD
Protocol: as §5, §6, §7, §8

NCI-N87 = assay: as above; conditions: Homo sapiens, NCI-N87, 144 h
Protocol: as §5, §6, §7, §8

[3] = read-out: IC50 (nM) 1st experiment
[4] = read-out: IC50 (nM) 2nd experiment

## CC[C@@]1(O)C(=O)OCc2c1cc1n(c2=O)Cc2c-1nc1ccc(N)c3c1c2C(F)(F)CC3 [Compound 3]
[1]; BxPC-3, killing days 4 days
  EC50: 3230 pM and 5820 pM
[1]; Homo sapiens, BXPC-3, 96 h, read-out: Maximum Killing (%), BxPC-3, killing days 4 days
  Emax: 98%
[2]
  Emax: 92.1%
BT-20; [3]
  IC50: 0.5 nM
BT-20; [4]
  IC50: 0.5 nM
BT-20; read-out: IC50 (nM) Mean ± SD
  IC50: 0.53 ± 0.01 nM
BT-474; [3]
  IC50: 2.3 nM
BT-474; [4]
  IC50: 0.5 nM
BT-474; read-out: IC50 (nM) Mean ± SD
  IC50: 1.43 ± 1.25 nM
BxPC-3; [3]
  IC50: 0.2 nM
BxPC-3; [4]
  IC50: 0.2 nM
BxPC-3; read-out: IC50 (nM) Mean ± SD
  IC50: 0.17 ± 0.01 nM
Calu-3; [3]
  IC50: 0.4 nM
Calu-3; [4]
  IC50: 0.4 nM
Calu-3; read-out: IC50 (nM) Mean ± SD
  IC50: 0.4 ± 0.02 nM
Colo 205; [3]
  IC50: 0.2 nM
Colo 205; [4]
  IC50: 0.2 nM
Colo 205; read-out: IC50 (nM) Mean ± SD
  IC50: 0.21 ± 0.05 nM
HT-29; [3]
  IC50: 0.4 nM
HT-29; [4]
  IC50: 0.4 nM
HT-29; read-out: IC50 (nM) Mean ± SD
  IC50: 0.4 ± 0.01 nM
HT1376; [3]
  IC50: 1 nM
HT1376; [4]
  IC50: 0.9 nM
HT1376; read-out: IC50 (nM) Mean ± SD
  IC50: 0.98 ± 0.08 nM
MCF-7; [3]
  IC50: 0.2 nM
MCF-7; [4]
  IC50: 0.1 nM
MCF-7; read-out: IC50 (nM) Mean ± SD
  IC50: 0.11 ± 0.08 nM
MDA-MB-231/TROP2; [3]
  IC50: 0.1 nM
MDA-MB-231/TROP2; [4]
  IC50: 0.1 nM
MDA-MB-231/TROP2; read-out: IC50 (nM) Mean ± SD
  IC50: 0.06 ± 0.01 nM
MDA-MB-231; [3]
  IC50: 0.8 nM
MDA-MB-231; [4]
  IC50: 0.8 nM
MDA-MB-231; read-out: IC50 (nM) Mean ± SD
  IC50: 0.69 ± 0.15 nM
MDA-MB-468
  IC50: 0.16 ± 0.01 nM
NCI-N87; [3]
  IC50: 0.4 nM
NCI-N87; [4]
  IC50: 0.5 nM
NCI-N87; read-out: IC50 (nM) Mean ± SD
  IC50: 0.47 ± 0.07 nM

Reference: US20250059201A1, “CAMPTOTHECIN COMPOUND AND CONJUGATE THEREOF” (priority 2021, published 2025)
